# Patent US11767504B2, “Albumin compositions and methods of producing and using same” (Albcura Corporation, priority 2020, dated 2023)
# Tested on: Insulin
# Assay: Assay of insulin aggregation stabilization by various albumin (absorbance at 360 nm)
# Format: biochemical
# Details: 1−(A360 with albumin)/(A360 of (−) group), at time point where control A360 near 0.35; albumin samples 2 mg/mL mixed 1:1 with 0.7 mg/mL insulin working solution, 37° C.
# Protocol: Various albumin samples were diluted to 2 mg/mL in purified water. An assay working solution was prepared containing 60 mM of HEPES (pH=7.4), 300 mM of NaCl, 30 mM of 2-mercaptoethanol, and 0.7 mg/mL of Insulin. In a 96-well plate, 100 μL of the assay working solution was mixed with 100 μL of each albumin sample. The plate was incubated at 37° C. inside a plate reader, and the absorbance at 360 nm was measured every 30 seconds for 60 minutes.
# The absorbance data at 360 nm (A360) of each group was picked at the time point where the A360 of the control group (without albumin, labeled as (−)) was near 0.35. […] Stabilizing Efficiency %=1−(A360 of experimental group with albumin)/(A360 of (−) group)
substance,measurement,value
fatty acid free BSA: Fatty acid-free BSA from Sigma Aldrich (A8806),Stabilizing Efficiency,53%
